Measured values taken from the supplement of paper PMC10307832.

Tests used:
Assay in all cases: relative viability (nuclei count vs DMSO), 5 days (fraction); higher = more cells survive
[1] = compound: CNC(=O)c1ccccc1Sc1ccc2c(/C=C/c3ccccn3)n[nH]c2c1 [Axitinib]
Method in brief: (§1)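 Nuclei counted with MetaXpress define viability as the ratio of treated to vehicle wells, given as a median across plates. The lung cancer cell lines were in 1536-well plates, pinned with five √10-spaced library-drug doses and imaged at 4× after 5 days and Hoechst staining. Plates passed with control CV below 25% and at least one doubling.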

[2] = compound: CC1=CC=C(C=C1)C(=O)CN2C3=C(CCCC3)SC2=N [Pifithrin_alpha]
Method in brief: as §1

[3] = compound: Nc1nc(Nc2ccc3c(c2)CC[C@@H](N2CCCC2)CC3)nn1-c1cc2c(nn1)-c1ccccc1CCC2 [Bemcentinib]
Method in brief: as §1

[4] = compound: CC1=CC=C(C=C1)C(=O)CN2C3=C(CCCC3)SC2=N [Pifithrin_alpha] + COc1cc2c(Oc3ccc(NC(=O)C4(C(=O)Nc5ccc(F)cc5)CC4)cc3F)ccnc2cc1OCCCN1CCOCC1 [Foretinib] (partner 0.25 µM)
Method in brief: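 Relative viability equals treated-well nuclei counts divided by vehicle-well nuclei counts. Counts came from 4× images of lung cancer cell lines grown in 1536-well plates for 5 days after pin-tool dosing on the day after seeding. Dosing used one drug alone or a fixed anchor-drug dose plus five library-drug doses (not always all listed) in √10 steps, and values are medians of duplicate plates.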

| Cell Line | relative viability ([1]; 0.005 µM) | relative viability ([1]; 0.01581 µM) | relative viability ([1]; 0.05 µM) | relative viability ([1]; 0.1581 µM) | relative viability ([1]; 0.5 µM) | relative viability ([2]; 1 µM) | relative viability ([2]; 3.162 µM) | relative viability ([2]; 10 µM) | relative viability ([2]; 31.62 µM) | relative viability ([2]; 100 µM) | relative viability ([3]; 0.04 µM) | relative viability ([3]; 0.1265 µM) | relative viability ([3]; 0.4 µM) | relative viability ([3]; 1.265 µM) | relative viability ([3]; 4 µM) | relative viability ([4]; first compound 1 µM) | relative viability ([4]; first compound 3.162 µM) | relative viability ([4]; first compound 10 µM) | relative viability ([4]; first compound 100 µM) | relative viability ([4]; first compound 31.62 µM) |
| --- | --- | --- | --- | --- | --- | --- | --- | --- | --- | --- | --- | --- | --- | --- | --- | --- | --- | --- | --- | --- |
| NCI-H441 | 1.07 | 1.07 | 1.11 | 1.22 | 1.1 | 1.08 | 1.21 | 1.03 | 0.721 | 1.23 | 1.01 | 1.23 | 1.04 | 0.915 | 1.26 | 0.974 | 1.17 | 1.04 | 0.925 |  |
| LC-2-ad | 1 | 0.963 | 1.03 | 0.956 | 1.02 | 0.702 | 1 | 0.96 | 0.697 | 0.832 | 0.903 | 0.988 | 0.99 | 0.971 | 0.972 |  | 0.902 | 0.904 | 0.871 |  |
| NCI-H838 | 0.992 | 0.944 | 1.01 | 0.933 | 1.03 | 0.856 | 0.807 | 0.854 | 0.735 | 0.643 | 0.946 | 1.08 | 1 | 1.02 | 1.03 | 1.06 | 0.933 | 0.991 | 0.762 | 0.8 |
| NCI-H1944 | 1.04 | 0.952 | 1.02 | 0.943 | 0.761 | 0.898 | 0.826 | 0.781 | 0.451 | 0.71 | 0.968 | 1.05 | 0.993 | 0.941 | 0.988 | 0.816 | 0.713 | 0.732 | 0.677 | 0.47 |
| CAL-12T | 1.03 | 1 | 0.983 | 0.94 | 0.977 | 0.778 | 1 | 0.937 | 0.711 | 0.765 | 0.989 | 1.02 | 1.06 | 1.02 | 1.01 | 0.923 | 1.18 | 1.06 | 0.898 |  |
| EPLC-272H | 0.943 | 0.832 | 0.938 | 0.896 | 0.83 | 0.622 | 0.892 | 0.859 | 0.755 | 0.802 | 0.749 | 0.991 | 1.01 | 0.906 | 0.841 | 0.601 | 0.66 | 0.632 | 0.695 | 0.424 |
| EBC-1 | 1.15 | 0.995 | 1.05 | 0.956 | 1.08 | 0.973 | 0.996 | 0.794 | 0.582 | 0.723 | 1.02 | 1.2 | 1.09 | 0.999 | 1.22 | 0.0836 | 0.0947 | 0.0856 | 0.0988 | 0.0979 |
| NCI-H2170 | 1.1 | 0.975 | 1.01 | 0.974 | 1 | 0.989 | 1.04 | 0.875 | 0.948 | 0.962 | 1.09 | 1.09 | 0.991 | 0.999 | 0.899 | 0.985 | 1.02 | 0.988 | 0.952 | 0.931 |
| SW 900 | 0.929 | 0.584 | 0.724 | 0.92 | 1.01 | 0.706 | 0.643 | 0.75 | 0.648 | 0.653 | 0.772 | 0.97 | 0.913 | 0.742 | 0.871 | 0.878 | 0.724 | 0.836 | 0.424 | 0.837 |
| NCI-H1915 | 1 | 1.07 | 0.982 | 0.99 | 0.999 | 0.887 | 1.03 | 0.737 |  | 1.08 | 1.01 | 1.1 | 1.05 | 0.947 | 0.958 | 1.09 | 1.15 |  | 1.12 |  |
| NCI-H2087 | 0.939 | 1.09 | 0.996 | 1.02 | 0.986 | 0.932 | 1.13 | 1.02 | 0.63 | 0.958 | 1.12 | 1.2 | 1.07 | 0.969 | 1.03 | 1.1 | 1.21 | 1.07 | 1.03 |  |
| LCLC-97TM1 | 1.06 | 1.02 | 0.986 | 0.892 | 0.822 |  | 0.934 | 1.13 |  | 0.975 | 0.997 | 1.09 | 0.801 | 1.03 | 0.982 | 0.954 | 1.08 | 0.934 | 0.909 | 0.496 |
| NCI-H1734 | 0.998 | 0.951 | 1.03 | 0.9 | 1.03 | 0.885 | 0.99 | 0.915 | 0.751 | 0.937 | 0.91 | 1.01 | 0.982 | 0.996 | 1.08 | 0.868 | 0.825 | 0.814 | 0.793 | 0.763 |
| EKVX | 1.01 | 0.963 | 0.917 | 0.88 | 0.99 | 0.984 | 0.861 | 0.858 | 0.738 | 0.695 | 0.793 | 1.09 | 1.02 | 1.03 | 1.03 | 0.744 |  | 0.736 | 0.636 | 0.731 |
| 201T | 0.994 | 0.936 | 0.953 | 0.964 | 0.955 | 0.992 | 0.781 | 0.679 | 0.646 | 0.724 | 0.943 | 0.982 | 1.05 | 0.947 | 1.01 | 0.928 | 0.745 | 0.684 | 0.681 | 0.627 |
| NCI-H2085 | 1.02 | 1.05 | 1.03 | 0.998 | 0.998 | 0.892 | 0.973 | 0.947 | 0.897 | 0.959 | 0.964 | 1.03 | 0.994 | 1.02 | 0.993 |  | 1.11 | 1.07 | 0.844 | 0.78 |
| NCI-H1395 | 0.992 | 0.719 | 0.985 | 0.886 | 0.878 |  | 0.902 | 0.915 | 0.693 | 0.85 | 0.893 | 1.02 | 0.952 | 0.892 | 0.838 | 0.899 | 0.98 | 0.975 | 0.712 | 0.748 |
